{
  "source": "patent US10689673B2",
  "about": "“Bioconversion process for producing nylon-7, nylon-7,7 and polyesters” (INVISTA NORTH AMERICA S.A.R.L., priority 2011, dated 2020)",
  "key": {"[1]": {"test_system": "PauA pimeloyl-CoA ligase (EC 6.2.1.14)", "conditions": "substrate of pauA; pimelate = 100%; cited from earlier work"}, "[2]": {"biological_target": "T1, Aminoadipate aminotransferase (Q64602) (Bos taurus, UniProt Q5E9N4)", "T1 construct": "host or cells: bovine kidney", "T1 sequence (Q5E9N4 30-425, one chain of several)": "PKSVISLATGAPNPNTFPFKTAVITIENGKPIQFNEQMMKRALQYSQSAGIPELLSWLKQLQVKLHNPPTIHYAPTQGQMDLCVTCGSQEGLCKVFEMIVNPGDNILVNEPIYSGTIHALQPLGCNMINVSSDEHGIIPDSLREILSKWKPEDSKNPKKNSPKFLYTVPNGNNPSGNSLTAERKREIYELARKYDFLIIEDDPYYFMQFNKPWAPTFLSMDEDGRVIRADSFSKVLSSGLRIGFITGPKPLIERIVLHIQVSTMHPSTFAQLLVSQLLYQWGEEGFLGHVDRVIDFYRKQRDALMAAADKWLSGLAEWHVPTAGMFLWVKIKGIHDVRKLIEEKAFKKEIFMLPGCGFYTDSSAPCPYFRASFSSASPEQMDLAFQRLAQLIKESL", "conditions": "cited from earlier work"}, "[3]": {"biological_target": "T2, Nocardia sp. carboxylic acid reductase (CAR) (Nocardia iowensis, UniProt Q6RKB1)", "T2 construct": "made in house; host or cells: E. coli BL21, cell-free extract", "T2 sequence (Q6RKB1 2-1174)": "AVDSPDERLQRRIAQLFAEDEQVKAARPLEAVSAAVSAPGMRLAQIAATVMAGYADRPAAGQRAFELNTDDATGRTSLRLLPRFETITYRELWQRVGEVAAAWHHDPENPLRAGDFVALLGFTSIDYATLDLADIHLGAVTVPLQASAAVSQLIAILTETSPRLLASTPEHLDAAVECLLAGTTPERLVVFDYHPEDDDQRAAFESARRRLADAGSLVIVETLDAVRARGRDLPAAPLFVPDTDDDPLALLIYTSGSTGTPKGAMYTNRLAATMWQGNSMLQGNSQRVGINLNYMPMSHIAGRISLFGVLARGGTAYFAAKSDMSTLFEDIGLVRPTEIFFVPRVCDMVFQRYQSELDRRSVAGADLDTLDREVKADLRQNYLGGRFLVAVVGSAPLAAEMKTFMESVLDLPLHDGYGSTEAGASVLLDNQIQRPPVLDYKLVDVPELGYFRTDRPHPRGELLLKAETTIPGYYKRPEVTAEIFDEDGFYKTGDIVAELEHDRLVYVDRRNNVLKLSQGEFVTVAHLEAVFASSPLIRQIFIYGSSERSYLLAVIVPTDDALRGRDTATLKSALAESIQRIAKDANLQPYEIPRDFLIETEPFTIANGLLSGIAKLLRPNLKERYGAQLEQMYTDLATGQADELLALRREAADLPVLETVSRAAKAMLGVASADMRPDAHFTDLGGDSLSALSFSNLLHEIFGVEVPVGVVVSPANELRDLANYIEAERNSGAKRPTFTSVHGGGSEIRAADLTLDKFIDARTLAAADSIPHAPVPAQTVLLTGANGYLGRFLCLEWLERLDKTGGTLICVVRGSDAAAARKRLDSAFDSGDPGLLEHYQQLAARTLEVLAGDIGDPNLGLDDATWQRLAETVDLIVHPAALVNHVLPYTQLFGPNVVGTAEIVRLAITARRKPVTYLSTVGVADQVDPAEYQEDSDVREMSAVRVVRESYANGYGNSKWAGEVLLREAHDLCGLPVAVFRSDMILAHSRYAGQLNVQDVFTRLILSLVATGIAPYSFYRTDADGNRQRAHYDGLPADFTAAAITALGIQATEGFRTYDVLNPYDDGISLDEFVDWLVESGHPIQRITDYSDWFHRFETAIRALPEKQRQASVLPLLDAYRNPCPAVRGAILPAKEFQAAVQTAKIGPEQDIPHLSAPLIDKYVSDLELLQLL", "assay": "Carboxylic acid reductase (CAR) spectrophotometric assay of NADPH consumption", "assay_type": "biochemical", "excerpt": "The conditions for the assay were taken from Applied and Environmental Microbiology 2004, 70, p 1874-1881."}, "[4]": {"biological_target": "T3, Citrobacter amalonaticus methylaspartate ammonia lyase (MAL) (Citrobacter amalonaticus, UniProt O66145)", "T3 construct": "made in house; host or cells: E. coli BL21 (DE3), pET21-a, cell-free extract", "T3 sequence (O66145 whole entry)": "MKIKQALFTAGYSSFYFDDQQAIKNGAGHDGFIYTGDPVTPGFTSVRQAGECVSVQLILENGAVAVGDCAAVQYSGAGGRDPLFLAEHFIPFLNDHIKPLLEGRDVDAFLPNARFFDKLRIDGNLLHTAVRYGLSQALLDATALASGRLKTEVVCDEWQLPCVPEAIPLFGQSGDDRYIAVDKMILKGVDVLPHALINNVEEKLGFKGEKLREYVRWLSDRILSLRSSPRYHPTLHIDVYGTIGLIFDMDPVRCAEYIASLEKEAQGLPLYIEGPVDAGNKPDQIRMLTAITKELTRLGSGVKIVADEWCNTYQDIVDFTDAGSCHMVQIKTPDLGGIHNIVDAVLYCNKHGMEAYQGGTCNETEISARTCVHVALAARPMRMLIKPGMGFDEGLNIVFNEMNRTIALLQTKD", "assay": "Biotransformation of beta-methyl aspartate with I4 lyase strain cell extract", "assay_type": "biochemical", "conditions": "10 mM substrate, 5 or 20 g/L whole cell equivalent, 30° C., after 1 hour"}, "[5]": {"biological_target": "T4, Clostridium tetanomorphum methylaspartate ammonia lyase (MAL) (Clostridium tetanomorphum, UniProt Q05514)", "T4 construct": "made in house; host or cells: E. coli BL21 (DE3), pET21-a, cell-free extract", "T4 sequence (Q05514 whole entry)": "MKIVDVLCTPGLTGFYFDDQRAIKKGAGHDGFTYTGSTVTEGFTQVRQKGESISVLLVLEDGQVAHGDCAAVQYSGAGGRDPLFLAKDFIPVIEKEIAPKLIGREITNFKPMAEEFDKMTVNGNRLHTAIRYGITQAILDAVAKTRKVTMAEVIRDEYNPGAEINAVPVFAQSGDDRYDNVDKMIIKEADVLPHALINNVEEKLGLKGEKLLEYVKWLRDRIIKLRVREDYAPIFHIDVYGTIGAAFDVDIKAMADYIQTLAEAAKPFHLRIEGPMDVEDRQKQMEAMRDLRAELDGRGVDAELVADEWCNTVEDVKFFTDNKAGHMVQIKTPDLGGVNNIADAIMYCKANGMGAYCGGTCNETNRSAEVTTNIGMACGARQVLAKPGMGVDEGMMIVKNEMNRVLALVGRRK", "assay": "Biotransformation of beta-methyl aspartate with I5 lyase strain cell extract", "assay_type": "biochemical", "conditions": "10 mM substrate, 5 or 20 g/L whole cell equivalent, 30° C., after 1 hour"}, "[6]": {"test_system": "Aspergillus oryzae methylaspartate ammonia lyase (MAL)", "conditions": "10 mM substrate, 5 or 20 g/L whole cell equivalent, 30° C., 1, 5 and 18 hours"}, "[7]": {"biological_target": "T5, ACOT4 peroxisomal acyl-CoA thioesterase 4 (Mus musculus, UniProt Q8BWN8)", "T5 construct": "His tag; host or cells: E. coli", "T5 sequence (Q8BWN8 1-421)": "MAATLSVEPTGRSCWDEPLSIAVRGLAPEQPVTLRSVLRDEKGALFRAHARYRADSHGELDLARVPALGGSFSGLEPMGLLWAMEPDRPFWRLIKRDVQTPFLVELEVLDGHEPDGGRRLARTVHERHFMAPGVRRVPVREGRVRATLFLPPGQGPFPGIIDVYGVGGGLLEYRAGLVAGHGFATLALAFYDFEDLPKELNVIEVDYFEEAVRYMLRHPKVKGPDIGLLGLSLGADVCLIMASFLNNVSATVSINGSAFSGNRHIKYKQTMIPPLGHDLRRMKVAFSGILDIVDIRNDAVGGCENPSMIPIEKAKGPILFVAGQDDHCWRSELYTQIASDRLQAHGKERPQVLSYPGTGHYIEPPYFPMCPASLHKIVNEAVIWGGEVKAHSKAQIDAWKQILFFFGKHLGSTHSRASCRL", "conditions": "at concentrations up to 500 μM; cited from earlier work"}, "ACOT5 (formerly PTE-1c)": {"biological_target": "T6, ACOT5 (formerly PTE-1c) (Mus musculus, UniProt Q6Q2Z6)", "T6 construct": "His tag; host or cells: E. coli", "T6 sequence (Q6Q2Z6 1-421)": "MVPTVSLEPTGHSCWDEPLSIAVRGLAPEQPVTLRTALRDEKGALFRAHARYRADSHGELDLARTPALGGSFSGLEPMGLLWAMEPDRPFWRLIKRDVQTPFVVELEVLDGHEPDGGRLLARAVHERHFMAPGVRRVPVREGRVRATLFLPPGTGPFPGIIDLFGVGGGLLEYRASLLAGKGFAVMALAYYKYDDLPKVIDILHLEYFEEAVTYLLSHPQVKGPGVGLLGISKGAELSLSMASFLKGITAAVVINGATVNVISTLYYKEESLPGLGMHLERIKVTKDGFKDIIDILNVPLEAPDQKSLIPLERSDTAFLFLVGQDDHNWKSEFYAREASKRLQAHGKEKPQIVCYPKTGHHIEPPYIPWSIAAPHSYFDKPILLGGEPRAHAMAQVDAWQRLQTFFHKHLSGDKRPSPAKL", "conditions": "cited from earlier work"}, "ACOT3 (formerly PTE-1a)": {"biological_target": "T7, ACOT3 (formerly PTE-1a) (Mus musculus, UniProt Q9QYR7)", "T7 construct": "His tag; host or cells: E. coli", "T7 sequence (Q9QYR7 1-432)": "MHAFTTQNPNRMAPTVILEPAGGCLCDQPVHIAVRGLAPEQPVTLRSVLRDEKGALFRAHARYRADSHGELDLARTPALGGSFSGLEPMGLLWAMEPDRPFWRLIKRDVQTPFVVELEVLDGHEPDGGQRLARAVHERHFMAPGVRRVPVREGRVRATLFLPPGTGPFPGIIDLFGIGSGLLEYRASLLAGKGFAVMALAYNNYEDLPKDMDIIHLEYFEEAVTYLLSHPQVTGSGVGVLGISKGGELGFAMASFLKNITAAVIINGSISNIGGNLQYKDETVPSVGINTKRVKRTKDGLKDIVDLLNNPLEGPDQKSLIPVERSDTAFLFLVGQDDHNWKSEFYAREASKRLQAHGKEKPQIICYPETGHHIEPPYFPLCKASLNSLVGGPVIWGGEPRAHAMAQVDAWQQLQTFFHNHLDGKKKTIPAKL", "conditions": "cited from earlier work"}, "[8]": {"biological_target": "T8, Haemophilus influenzae YciA thioesterase (Haemophilus influenzae, UniProt P44886)", "T8 construct": "made in house; host or cells: E. coli BL21 (DE3), cell-free extract", "T8 sequence (P44886 whole entry)": "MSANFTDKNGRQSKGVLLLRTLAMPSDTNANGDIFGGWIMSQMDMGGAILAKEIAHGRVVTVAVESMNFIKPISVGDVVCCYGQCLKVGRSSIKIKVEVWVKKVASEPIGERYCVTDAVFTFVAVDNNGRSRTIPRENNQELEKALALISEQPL", "assay": "Biotransformation of pimeloyl-CoA to pimelic acid with YciA thioesterase cell free extract", "assay_type": "biochemical", "conditions": "1 mM substrate, ~15 g/L whole cell equivalents, pH 7.5, 20° C., after 1 hour", "procedure": "Biotransformations were carried out in a final volume of 2 mL. The biotransformations comprised of 1 mM substrate, 200 mM KCl and 50 mM potassium Hepes (pH 7.5). Negative controls comprised of cells harbouring the empty vector The biocatalyst was charged as a cell free extract to give a final concentration of ˜15 g/L whole cell equivalents. The reactions were carried out at ambient temperature (20° C.) in 15 mL falcon tubes with stirring. Each biotransformation was sampled after 1 h, 4 h and 24 h and analysed by HPLC (Agilent 1100) on a Phenomenex Luna C18 250×4.6 mm, 5 micron column. […] The filtrates were analysed by HPLC at 260 nm for the disappearance of pimeloyl-CoA (Rt 12.39 mins) and the formation of CoA (Rt 7.98 minutes), both which absorbs strongly at this wavelength, while pimlic acid was not detectable by UV at 260 nm. Pimelic acid formation was confirmed by LC-MS."}},
  "data": [
    {"smiles": "O=C(O)CCCCCC(=O)O", "note": "[Pimelic acid]", "values": [
      {"measurement": "relative activity", "setting": "[1]", "result": 100, "unit": "%"},
      {"measurement": "reduction in activity in the presence of pimelic acid", "setting": "[2]", "result": 30, "unit": "%"},
      {"measurement": "NADPH consumption (uncorrected)", "setting": "[3]; 50 mM substrate, rCAR cell free extract 4.3 g/L whole cell equivalents, pH 7.5, ~20 deg C, change in absorbance over time", "result": "−0.00096"},
      {"measurement": "NADPH consumption (corrected for background)", "setting": "[3]; as uncorrected, corrected with negative control (BL21 empty vector) rate", "result": "−0.00103"},
      {"measurement": "activity relative to the activity for benzoic acid", "setting": "[3]; reduction to pimelic acid semialdehyde", "result": "> 100", "unit": "%"}
    ]},
    {"smiles": "C[C@H](C(=O)O)[C@@H](N)C(=O)O", "note": "(racemic) [DL-threo-beta methyl aspartate]", "values": [
      {"measurement": "conversion to mesaconic acid", "setting": "[4]", "result": "complete conversion"},
      {"measurement": "conversion to mesaconic acid", "setting": "[5]", "result": "complete conversion"},
      {"measurement": "lyase activity (mesaconic acid formation)", "setting": "[6]", "result": "No activity"}
    ]},
    {"smiles": "CC(C)(COP(=O)(O)OP(=O)(O)OC[C@H]1O[C@@H](n2cnc3c(N)ncnc32)[C@H](O)[C@@H]1OP(=O)(O)O)[C@@H](O)C(=O)NCCC(=O)NCCS", "note": "[CoASH]", "values": [
      {"measurement": "inhibition of the reaction by CoASH", "setting": "[7]", "result": "not inhibited"},
      {"measurement": "inhibition with free CoASH", "setting": "ACOT5 (formerly PTE-1c)", "result": "no inhibition"},
      {"measurement": "inhibition with free CoASH", "setting": "ACOT3 (formerly PTE-1a)", "result": "no inhibition"}
    ]},
    {"smiles": "CC(C)(COP(=O)(O)OP(=O)(O)OC[C@H]1O[C@@H](n2cnc3c(N)ncnc32)[C@H](O)[C@@H]1OP(=O)(O)O)[C@@H](O)C(=O)NCCC(=O)NCCSC(=O)CCCCCC(=O)O", "note": "[pimeloyl-CoA]", "values": [
      {"measurement": "hydrolysis to pimelic acid", "setting": "[8]", "result": "Complete hydrolysis"}
    ]}
  ]
}
